Test results as given in PubChem BioAssay (NCI).
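Results reflect a 48-hour exposure of cells in 96-well plates to compound at five concentrations. Definition used: TGI = concentration required for complete inhibition of growth.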

Tests used:
Assay in all cases: NCI tumour cell line growth inhibition, 48 h
MALME-3M melanoma = tested on: MALME-3M melanoma
SK-MEL-2 melanoma = tested on: SK-MEL-2 melanoma
KM12 colon = tested on: KM12 colon
NCI/ADR-RES ovarian = tested on: NCI/ADR-RES ovarian
IGROV1 ovarian = tested on: IGROV1 ovarian
MDA-N = tested on: MDA-N
SF-539 CNS = tested on: SF-539 CNS
NCI-H460 lung = tested on: NCI-H460 lung
HOP-92 NSCLC = tested on: HOP-92 NSCLC
HL-60(TB) leukemia = tested on: HL-60(TB) leukemia
HCC-2998 colon = tested on: HCC-2998 colon
OVCAR-8 ovarian = tested on: OVCAR-8 ovarian
SF-295 CNS = tested on: SF-295 CNS
NCI-H23 lung = tested on: NCI-H23 lung
UACC-62 melanoma = tested on: UACC-62 melanoma
SF-268 CNS = tested on: SF-268 CNS
HCT-116 colon = tested on: HCT-116 colon
OVCAR-3 ovarian = tested on: OVCAR-3 ovarian
HOP-62 NSCLC = tested on: HOP-62 NSCLC
COLO 205 colon = tested on: COLO 205 colon
SK-MEL-5 melanoma = tested on: SK-MEL-5 melanoma
SR leukemia = tested on: SR leukemia
LOX IMVI melanoma = tested on: LOX IMVI melanoma
SN12C renal = tested on: SN12C renal
HCT-15 colon = tested on: HCT-15 colon
MDA-MB-435 = tested on: MDA-MB-435
OVCAR-4 ovarian = tested on: OVCAR-4 ovarian
MDA-MB-231 breast = tested on: MDA-MB-231 breast
HS 578T breast = tested on: HS 578T breast
DU-145 prostate = tested on: DU-145 prostate
MCF7 breast = tested on: MCF7 breast
RPMI-8226 leukemia = tested on: RPMI-8226 leukemia
K-562 leukemia = tested on: K-562 leukemia
OVCAR-5 ovarian = tested on: OVCAR-5 ovarian
HT29 colon = tested on: HT29 colon
NCI-H226 lung = tested on: NCI-H226 lung
UACC-257 melanoma = tested on: UACC-257 melanoma
SK-MEL-28 melanoma = tested on: SK-MEL-28 melanoma
MOLT-4 leukemia = tested on: MOLT-4 leukemia
M14 melanoma = tested on: M14 melanoma
CAKI-1 renal = tested on: CAKI-1 renal
A549 NSCLC = tested on: A549 NSCLC
PC-3 prostate = tested on: PC-3 prostate
EKVX NSCLC = tested on: EKVX NSCLC
A498 renal = tested on: A498 renal
BT-549 breast = tested on: BT-549 breast
U251 CNS = tested on: U251 CNS
NCI-H522 lung = tested on: NCI-H522 lung
UO-31 renal = tested on: UO-31 renal
SNB-19 CNS = tested on: SNB-19 CNS
RXF 393 renal = tested on: RXF 393 renal
TK-10 renal = tested on: TK-10 renal
SW-620 colon = tested on: SW-620 colon
ACHN renal = tested on: ACHN renal
786-0 renal = tested on: 786-0 renal

SMILES: CC(C)OC(=O)C1=C2c3ncccc3C(=O)N2[C@@H](Cl)[C@@H](Cl)[C@@H]1Cl
- TGI (MALME-3M melanoma): > 100 µM
- TGI (SK-MEL-2 melanoma): > 100 µM
- TGI (KM12 colon): > 100 µM
- TGI (NCI/ADR-RES ovarian): > 100 µM
- TGI (IGROV1 ovarian): > 100 µM
- TGI (MDA-N): > 100 µM
- TGI (SF-539 CNS): > 100 µM
- TGI (NCI-H460 lung): > 100 µM
- TGI (HOP-92 NSCLC): > 100 µM
- TGI (HL-60(TB) leukemia): > 100 µM
- TGI (HCC-2998 colon): > 100 µM
- TGI (OVCAR-8 ovarian): > 100 µM
- TGI (SF-295 CNS): > 100 µM
- TGI (NCI-H23 lung): > 100 µM
- TGI (UACC-62 melanoma): > 100 µM
- TGI (SF-268 CNS): > 100 µM
- TGI (HCT-116 colon): > 100 µM
- TGI (OVCAR-3 ovarian): > 100 µM
- TGI (HOP-62 NSCLC): > 100 µM
- TGI (COLO 205 colon): > 100 µM
- TGI (SK-MEL-5 melanoma): > 100 µM
- TGI (SR leukemia): > 100 µM
- TGI (LOX IMVI melanoma): > 100 µM
- TGI (SN12C renal): 90.4 µM
- TGI (HCT-15 colon): > 100 µM
- TGI (MDA-MB-435): > 100 µM
- TGI (OVCAR-4 ovarian): > 100 µM
- TGI (MDA-MB-231 breast): > 100 µM
- TGI (HS 578T breast): > 100 µM
- TGI (DU-145 prostate): > 100 µM
- TGI (MCF7 breast): > 100 µM
- TGI (RPMI-8226 leukemia): > 100 µM
- TGI (K-562 leukemia): > 100 µM
- TGI (OVCAR-5 ovarian): > 100 µM
- TGI (HT29 colon): > 100 µM
- TGI (NCI-H226 lung): > 100 µM
- TGI (UACC-257 melanoma): > 100 µM
- TGI (SK-MEL-28 melanoma): > 100 µM
- TGI (MOLT-4 leukemia): 95.9 µM
- TGI (M14 melanoma): > 100 µM
- TGI (CAKI-1 renal): > 100 µM
- TGI (A549 NSCLC): > 100 µM
- TGI (PC-3 prostate): > 100 µM
- TGI (EKVX NSCLC): > 100 µM
- TGI (A498 renal): > 100 µM
- TGI (BT-549 breast): > 100 µM
- TGI (U251 CNS): > 100 µM
- TGI (NCI-H522 lung): > 100 µM
- TGI (UO-31 renal): > 100 µM
- TGI (SNB-19 CNS): > 100 µM
- TGI (RXF 393 renal): > 100 µM
- TGI (TK-10 renal): > 100 µM
- TGI (SW-620 colon): > 100 µM
- TGI (ACHN renal): > 100 µM
- TGI (786-0 renal): > 100 µM
